Laboratory results as given in patent US11779559B2, “Compositions for treating fungal and bacterial biofilms and methods of using the same” (priority 2017, dated 2023).

Tests used:
[1] = tested on: fungal and bacterial biofilms; test: Biofilm assays (sustained inhibition and disruption), fungal and bacterial biofilms; assay type: cell-based; conditions: single component on its own
Protocol: (§1) Two types of biofilm assays were performed: a sustained inhibition assay and a disruption assay. The sustained inhibition assay assesses the compound's ability to prevent biofilm development throughout all stages of biofilm formation, while the disruption assay assesses the compound's ability to break up an existing mature biofilm. These assays are described in detail in the following article: Lohse, M. B., Gulati, M., Valle Arevalo, A., Fishburn, A., Johnson, A. D., and Nobile, C. J. (2017) Assessment and optimizations of Candida albicans in vitro biofilm assays. Antimicrobial Agents and Chemotherapy 61: e02749-16.
(§2) For fungal biofilm assays, all solutions were prepared in RPMI 1640 medium. All bacterial biofilm solutions were prepared in Trypic Soy Broth (TSB), supplemented with 1% glucose (henceforth referred to as TSB-G). All subsequent procedures were performed in a manner that maintained sterility. A solution of each amino acid to be tested was prepared in weight to volume concentrations ranging from 0.1-5.0%. Amino acids were also tested in combinations. Compound solutions were homogenized with gentle agitation in the dark (4° C., 24 hours) before use.
All biofilm assays were performed using 384-well non-tissue culture treated polystyrene plates. The fungal species tested are as follows: Candida albicans, Candida guilhermondii, Candida parapsilosis, Candida glabrata, Candida tropicalis, Candida dubliniensis, and Candida auris. The bacterial species tested are as follows: Staphylococcus aureus (standard wild type and methicillin-resistant strain USA300), Escherichia coli, Pseudomonas aeruginosa and Staphylococcus epidermidis.
Fungal strains were streaked on Yeast Peptone Dextrose (YPD) agar plates and incubated at 30° C. for 48 hours. A single colony from each strain to be tested was inoculated into YPD broth and grown for 12 hours, at 30° C., shaking at 225 rpm. For the fungal biofilm inhibition assay, 1 μl of saturated overnight cell culture was added to either 80 μL of RPMI-1640 or RPMI-1640 supplemented with the amino acid compound solution to be tested, in a 384-well plate. The cells were allowed to adhere to the plate for 90 minutes at 37° C. with shaking (350 rpm). Loosely bound cells were washed once with phosphate buffered saline (PBS) and 80 ul of RPMI-1640, or RPMI-1640 supplemented with the amino acid compound solution was added to the plate. The plate was further incubated for 24 hours at 37° C. with shaking (350 rpm). Media was carefully aspirated and the biofilm was measured by optical density at 600 nm. Twelve replicates were performed for each tested condition and the reported values are normalized to the control (RPMI-1640 media only). For the fungal biofilm disruption assays, 80 μL of RPMI-1640 was added to the plate, along with 1 μL of overnight cell culture. The cells were allowed to adhere to the plate for 90 minutes at 37° C. with shaking (350 rpm). Loosely bound cells were washed once with PBS and 80 μL of RPMI-1640 was added to the plate. The plate was further incubated for 24 hours at 37° C. with shaking (350 rpm). Media was carefully aspirated from the mature biofilm and 80 μL of RPMI-1640, or RPMI-1640 supplemented with the amino acid compound solution to be tested, was gently added to the plate. The plate was further incubated for 24 hours at 37° C. with shaking (350 rpm). Media was carefully aspirated and the biofilm was measured by optical density at 600 nm. Twelve replicates were performed for each tested condition and the reported values are normalized to the control (RPMI-1640 media only).
Bacterial strains were streaked on Blood Agar plates (5% sheep blood in Tryptic Soy Agar) and incubated at 37° C. for 24 hours. A single colony from each strain to be tested was inoculated in a TSB broth and grown for 12 hours, at 37° C. with shaking (225 rpm).

[2] = tested on: S. aureus; test: Sustained inhibition biofilm assay, bacterial; assay type: cell-based, Staphylococcus aureus; conditions: sustained inhibition assay; S. aureus; 1% amino acid (unless specifically noted); p≤0.001
Protocol: as §1, with “J. (2017) Assessment and optimizations of Candida albicans in vitro biofilm assays.” left out
as §2, with “All” for “For fungal biofilm assays, all solutions were prepared in RPMI 1640 medium. All”
(§3) Bacterial strains were streaked on Blood Agar plates (5% sheep blood in Tryptic Soy Agar) and incubated at 37° C. for 24 hours. A single colony from each strain to be tested was inoculated in a TSB broth and grown for 12 hours, at 37° C. with shaking (225 rpm). For the bacterial biofilm inhibition assays, 1 μL of saturated overnight cell culture was added to either 80 μL of TSB-G, or TSB-G supplemented with the amino acid compound solution to be tested, in a 384-well plate. The cells were allowed to adhere to the plate for 60 minutes at 37° C. without shaking. The media was carefully aspirated and 80 μL of TSB-G, or TSB-G supplemented with the amino acid compound solution was added to the plate. The plate was further incubated for 24 hours at 37° C. without shaking. Media was carefully aspirated and the biofilm was measured by optical density at 600 nm. Eight or twelve replicates were performed for each tested condition and the reported values are normalized to the control (TSB-G media only). For the bacterial biofilm disruption assays, 80 μL of TSB-G was added to the plate, along with 1 μL of overnight cell culture. The cells were allowed to adhere to the plate for 60 minutes at 37° C. with no shaking. The media was carefully aspirated and 80 μL of TSB-G was added to the plate. The plate was further incubated for 24 hours at 37° C. with no shaking. Media was carefully aspirated from the mature biofilm and 80 μL of TSB-G, or TSB-G supplemented with the amino acid to be tested, was gently added to the plate. The plate was further incubated for 24 hours at 37° C. without shaking. Media was aspirated and the biofilm was measured by optical density at 600 nm. Twelve replicates were performed for each tested condition and the reported values are normalized to the control (TSB-G media only).

[3] = tested on: S. aureus; test: Disruption biofilm assay, bacterial; assay type: cell-based, Staphylococcus aureus; conditions: Staphylococcus aureus, 24 h; disruption assay; S. aureus; 1% amino acid (unless specifically noted); p≤0.001; read-out: Reduce B Biofilm
Protocol: as §1, with “J. (2017) Assessment and optimizations of Candida albicans in vitro biofilm assays.” left out
as §2, with “All” for “For fungal biofilm assays, all solutions were prepared in RPMI 1640 medium. All”
as §3

For `N[C@@H](CC(=O)O)C(=O)O` [Aspartic Acid, L-aspartic acid], the Effect on biofilms [1] was “very active against biofilms”, the “Reduce B Biofilm” value [2] was “●● (two dots [ie. ••] signifies major effect (greater than about 30% change))” and the inhibition at 1 % [3] was greater than 30%.
